Earlier results on 2 molecules are cited in US20030088889A1, “Enhancing biological activity of plants” (priority 2002, published 2003).

Data set [1] has as its target T1, estrogen receptor (Homo sapiens, UniProt P03372).
T1 sequence (P03372 1-595): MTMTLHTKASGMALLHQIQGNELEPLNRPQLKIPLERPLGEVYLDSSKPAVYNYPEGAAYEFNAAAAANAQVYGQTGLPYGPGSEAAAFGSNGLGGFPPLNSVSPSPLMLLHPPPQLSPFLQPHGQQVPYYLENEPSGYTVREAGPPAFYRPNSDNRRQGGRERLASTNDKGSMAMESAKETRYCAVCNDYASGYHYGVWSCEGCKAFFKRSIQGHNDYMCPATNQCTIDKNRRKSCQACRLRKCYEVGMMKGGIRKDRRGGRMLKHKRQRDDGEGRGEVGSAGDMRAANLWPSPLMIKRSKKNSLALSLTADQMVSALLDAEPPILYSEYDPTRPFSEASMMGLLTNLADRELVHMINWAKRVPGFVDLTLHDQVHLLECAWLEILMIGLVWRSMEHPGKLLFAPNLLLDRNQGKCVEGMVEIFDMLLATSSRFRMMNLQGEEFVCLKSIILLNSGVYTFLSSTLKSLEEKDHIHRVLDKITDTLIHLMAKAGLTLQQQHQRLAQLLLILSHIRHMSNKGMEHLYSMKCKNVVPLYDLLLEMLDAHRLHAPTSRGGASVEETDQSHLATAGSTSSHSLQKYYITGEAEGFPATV

Data set [2] deals with neuronal reuptake of monoamines and amino acids.

Take `O=c1cc(-c2ccc(O)c(-c3c(O)cc(O)c4c(=O)cc(-c5ccc(O)cc5)oc34)c2)oc2cc(O)cc(O)c12` [biapigenin]: the “affinity to the estrogen receptor” value in data set [1] is “weak affinity”.
For hyperforin, the “inhibition of neuronal reuptake of monoamines and amino acids” value in data set [2] was “potently inhibit”.
